Reference: ChEMBL document CHEMBL2434925, “Synthesis and antiviral activity of a novel class of (5-oxazolyl)phenyl amines” (Eur J Med Chem, 2013)

Legend:
Huh-7 = experiment: Selectivity index, ratio of CC50 for human Huh7.5 cells to IC50 for HCV expressing pFL-J6/JFH/JC1; type: functional
Hepatitis C virus = experiment: Antiviral activity against HCV expressing pFL-J6/JFH/JC1 infected in human Huh7.5 cells assessed as inhibition of viral RNA synthesis after 96 hrs by one-step RT-PCR analysis; type: functional, organism-based, Hepacivirus hominis; settings: Huh-7, 96 h
[1] = Cytotoxicity against human Huh7.5 cells after 96 hrs by MTT assay; type: cell-based, Huh-7

## CCC[C@H](NC(=O)[C@@H]1[C@H]2CCC[C@H]2CN1C(=O)[C@@H](NC(=O)[C@@H](NC(=O)c1cnccn1)C1CCCCC1)C(C)(C)C)C(=O)C(=O)NC1CC1 [TELAPREVIR]
Huh-7
  Ratio CC50/IC50: > 268
Hepatitis C virus
  IC50: < 140 nM
[1]
  CC50 at 96 h: 37.5 µM
